Assay results: ChEMBL document CHEMBL5252555, “Antimicrobial Polyketides from the Marine-Derived Fungus Spiromastix sp. SCSIO F190” (J Nat Prod, 2023)
≈ marks a conversion by molar mass, not a printed value. Calls of active or inactive are those of the source. The calls are words filed in the database; no cut-off is given here.

How the values were obtained:
Enterococcus faecium [1] = test: Antibacterial activity against Enterococcus faecium 36235 assessed as inhibition of bacterial growth incubated for 18 hrs by broth microdilution method; type: functional
HUVEC = test: Cytotoxicity against HUVEC cells incubated for 48 hrs by CCK-8 assay; type: toxicity, cell-based; conditions: human
Enterococcus faecium [2] = test: Antibacterial activity against Enterococcus faecium 35682 assessed as inhibition of bacterial growth incubated for 18 hrs by broth microdilution method; type: functional
Staphylococcus aureus [3] = test: Antibacterial activity against Staphylococcus aureus 16162 assessed as inhibition of bacterial growth incubated for 18 hrs by broth microdilution method; type: functional
Enterococcus faecalis [4] = test: Antibacterial activity against Enterococcus faecalis 36950 assessed as inhibition of bacterial growth incubated for 18 hrs by broth microdilution method; type: functional
Staphylococcus aureus [5] = test: Antibacterial activity against Staphylococcus aureus 718306 assessed as inhibition of bacterial growth incubated for 18 hrs by broth microdilution method; type: functional
Staphylococcus aureus [6] = test: Antibacterial activity against Staphylococcus aureus GDE4P037P assessed as inhibition of bacterial growth incubated for 18 hrs by broth microdilution method; type: functional
HepG2 = test: Cytotoxicity against human HepG2 cells incubated for 48 hrs by CCK-8 assay; type: functional, cell-based
Staphylococcus aureus [7] = test: Antibacterial activity against Staphylococcus aureus 3090 assessed as inhibition of bacterial growth incubated for 18 hrs by broth microdilution method; type: functional
Staphylococcus aureus [8] = test: Antibacterial activity against Staphylococcus aureus 6917 assessed as inhibition of bacterial growth incubated for 18 hrs by broth microdilution method; type: functional
Staphylococcus aureus [9] = test: Antibacterial activity against Staphylococcus aureus 16339 assessed as inhibition of bacterial growth incubated for 18 hrs by broth microdilution method; type: functional
MCF7 = test: Cytotoxicity against human MCF7 cells incubated for 48 hrs by CCK-8 assay; type: functional, cell-based
Micrococcus luteus = test: Antibacterial activity against Micrococcus luteus ML01 assessed as inhibition of bacterial growth incubated for 18 hrs by broth microdilution method; type: functional
Staphylococcus aureus [10] = test: Antibacterial activity against methicillin-resistant Staphylococcus aureus assessed as inhibition of bacterial growth incubated for 18 hrs by broth microdilution method; type: functional
Staphylococcus aureus [11] = test: Antibacterial activity against Staphylococcus aureus 991 assessed as inhibition of bacterial growth incubated for 18 hrs by broth microdilution method; type: functional
Staphylococcus aureus [12] = test: Antibacterial activity against Staphylococcus aureus 745324 assessed as inhibition of bacterial growth incubated for 18 hrs by broth microdilution method; type: functional
Staphylococcus aureus [13] = test: Antibacterial activity against Staphylococcus aureus ATCC 29213 assessed as inhibition of bacterial growth incubated for 18 hrs by broth microdilution method; type: functional
Enterococcus gallinarum = test: Antibacterial activity against Enterococcus gallinarum 5F52C assessed as inhibition of bacterial growth incubated for 18 hrs by broth microdilution method; type: functional
Bacillus subtilis = test: Antibacterial activity against Bacillus subtilis BS01 assessed as inhibition of bacterial growth incubated for 18 hrs by broth microdilution method; type: functional
[14] = Cytotoxicity against human LX2 cells incubated for 48 hrs by CCK-8 assay; type: toxicity, cell-based; conditions: lx-2, 48 h
A549 = test: Cytotoxicity against human A549 cells incubated for 48 hrs by CCK-8 assay; type: functional, cell-based
HCT-116 = test: Cytotoxicity against human HCT-116 cells incubated for 48 hrs by CCK-8 assay; type: functional, cell-based
Staphylococcus aureus [15] = test: Antibacterial activity against Staphylococcus aureus 1862 assessed as inhibition of bacterial growth incubated for 18 hrs by broth microdilution method; type: functional
Staphylococcus simulans = test: Antibacterial activity against Staphylococcus simulans AKA1 assessed as inhibition of bacterial growth incubated for 18 hrs by broth microdilution method; type: functional
Staphylococcus aureus [16] = test: Antibacterial activity against Staphylococcus aureus 669 assessed as inhibition of bacterial growth incubated for 18 hrs by broth microdilution method; type: functional
RBE = test: Cytotoxicity against human RBE cells incubated for 48 hrs by CCK-8 assay; type: functional, cell-based
Enterococcus faecalis [17] = test: Antibacterial activity against Enterococcus faecalis ATCC 29212 assessed as inhibition of bacterial growth incubated for 18 hrs by broth microdilution method; type: functional
Enterococcus faecium [18] = test: Antibacterial activity against Enterococcus faecium 36711 assessed as inhibition of bacterial growth incubated for 18 hrs by broth microdilution method; type: functional
HeLa = test: Cytotoxicity against human HeLa cells incubated for 48 hrs by CCK-8 assay; type: functional, cell-based

Structure (SMILES)	MIC (Enterococcus faecium [1])	Activity (HUVEC)	MIC (Enterococcus faecium [2])	MIC (Staphylococcus aureus [3])	MIC (Enterococcus faecalis [4])	MIC (Staphylococcus aureus [5])	MIC (Staphylococcus aureus [6])	Activity (HepG2)	MIC (Staphylococcus aureus [7])	MIC (Staphylococcus aureus [8])	MIC (Staphylococcus aureus [9])	Activity (MCF7)	MIC (Micrococcus luteus)	MIC (Staphylococcus aureus [10])	MIC (Staphylococcus aureus [11])	MIC (Staphylococcus aureus [12])	MIC (Staphylococcus aureus [13])	MIC (Enterococcus gallinarum)	MIC (Bacillus subtilis)	Activity [14]	further results
CCCCC/C=C1/C(=O)C(CC=C(C)C)=C(C)C1O (stereo unspecified)	> 128 µg/mL	Non-Toxic	> 128 µg/mL	> 128 µg/mL	> 128 µg/mL	> 128 µg/mL	> 128 µg/mL	inactive	> 128 µg/mL	> 128 µg/mL	> 128 µg/mL	inactive	> 128 µg/mL	> 128 µg/mL	> 128 µg/mL	> 128 µg/mL	> 128 µg/mL	> 128 µg/mL	> 128 µg/mL	Non-Toxic	Activity (A549): inactive; Activity (HCT-116): inactive; MIC (Staphylococcus aureus [15]): > 128 µg/mL; MIC (Staphylococcus simulans): > 128 µg/mL; MIC (Staphylococcus aureus [16]): > 128 µg/mL; Activity (RBE): inactive; MIC (Enterococcus faecalis [17]): > 128 µg/mL; MIC (Enterococcus faecium [18]): > 128 µg/mL; Activity (HeLa): inactive
CCCc1cc(Oc2c(O)c(Cl)c(O)c(Cl)c2CCC)c(Cl)c(OC)c1Cl	1 µg/mL (≈ 2.2 µM)	Non-Toxic	2 µg/mL (≈ 4.4 µM)	2 µg/mL (≈ 4.4 µM)	0.5 µg/mL (≈ 1.1 µM)	1 µg/mL (≈ 2.2 µM)	2 µg/mL (≈ 4.4 µM)	inactive	2 µg/mL (≈ 4.4 µM)	2 µg/mL (≈ 4.4 µM)	2 µg/mL (≈ 4.4 µM)	inactive	1 µg/mL (≈ 2.2 µM)	2 µg/mL (≈ 4.4 µM)	2 µg/mL (≈ 4.4 µM)	2 µg/mL (≈ 4.4 µM)	2 µg/mL (≈ 4.4 µM)	4 µg/mL (≈ 8.81 µM)	1 µg/mL (≈ 2.2 µM)	Non-Toxic	Activity (A549): inactive; Activity (HCT-116): inactive; MIC (Staphylococcus aureus [15]): 2 µg/mL (≈ 4.4 µM); MIC (Staphylococcus simulans): 2 µg/mL (≈ 4.4 µM); MIC (Staphylococcus aureus [16]): 2 µg/mL (≈ 4.4 µM); Activity (RBE): inactive; MIC (Enterococcus faecalis [17]): 2 µg/mL (≈ 4.4 µM); MIC (Enterococcus faecium [18]): 2 µg/mL (≈ 4.4 µM); Activity (HeLa): inactive
CCCc1c(O)c(Oc2c(Cl)c(O)c(Cl)c3c2C(=O)O[C@H](C)C3)cc(OC)c1Cl	32 µg/mL (≈ 69.3 µM)	Non-Toxic	16 µg/mL (≈ 34.7 µM)	16 µg/mL (≈ 34.7 µM)	16 µg/mL (≈ 34.7 µM)	16 µg/mL (≈ 34.7 µM)	32 µg/mL (≈ 69.3 µM)	inactive	8 µg/mL (≈ 17.3 µM)	16 µg/mL (≈ 34.7 µM)	16 µg/mL (≈ 34.7 µM)	inactive	8 µg/mL (≈ 17.3 µM)	8 µg/mL (≈ 17.3 µM)	8 µg/mL (≈ 17.3 µM)	16 µg/mL (≈ 34.7 µM)	8 µg/mL (≈ 17.3 µM)	16 µg/mL (≈ 34.7 µM)	8 µg/mL (≈ 17.3 µM)	Non-Toxic	Activity (A549): inactive; Activity (HCT-116): inactive; MIC (Staphylococcus aureus [15]): 16 µg/mL (≈ 34.7 µM); MIC (Staphylococcus simulans): 8 µg/mL (≈ 17.3 µM); MIC (Staphylococcus aureus [16]): 16 µg/mL (≈ 34.7 µM); Activity (RBE): inactive; MIC (Enterococcus faecalis [17]): 32 µg/mL (≈ 69.3 µM); MIC (Enterococcus faecium [18]): 16 µg/mL (≈ 34.7 µM); Activity (HeLa): inactive
CCCc1c(Cl)c(OC)c(Cl)c(Oc2c(Cl)c(O)c(Cl)c3c2C(=O)O[C@H](C)C3)c1OC	16 µg/mL (≈ 31.4 µM)	Non-Toxic	32 µg/mL (≈ 62.7 µM)	4 µg/mL (≈ 7.84 µM)	4 µg/mL (≈ 7.84 µM)	8 µg/mL (≈ 15.7 µM)	8 µg/mL (≈ 15.7 µM)	inactive	4 µg/mL (≈ 7.84 µM)	8 µg/mL (≈ 15.7 µM)	4 µg/mL (≈ 7.84 µM)	inactive	2 µg/mL (≈ 3.92 µM)	4 µg/mL (≈ 7.84 µM)	4 µg/mL (≈ 7.84 µM)	4 µg/mL (≈ 7.84 µM)	4 µg/mL (≈ 7.84 µM)	4 µg/mL (≈ 7.84 µM)	2 µg/mL (≈ 3.92 µM)	Non-Toxic	Activity (A549): inactive; Activity (HCT-116): inactive; MIC (Staphylococcus aureus [15]): 4 µg/mL (≈ 7.84 µM); MIC (Staphylococcus simulans): 4 µg/mL (≈ 7.84 µM); MIC (Staphylococcus aureus [16]): 4 µg/mL (≈ 7.84 µM); Activity (RBE): inactive; MIC (Enterococcus faecalis [17]): 8 µg/mL (≈ 15.7 µM); MIC (Enterococcus faecium [18]): 8 µg/mL (≈ 15.7 µM); Activity (HeLa): inactive
